Experimental findings from article PMC12238850, “Molecular determinants for recognition of serotonylated chromatin” (Nucleic Acids Research, 2025) are described below.

Where two headings read alike, the source gives them in different places.

The assay addresses T1, Taf3-PHD (residues 857–924) (Mus musculus, UniProt Q5HZG4).
T1 construct: PHD finger of Taf3 (residues 857–924) in NMR buffer; GST (N, cleaved yes); made in house; host or cells: E. coli BL21(DE3), M9 minimal medium (13C/15N)
T1 sequence (Q5HZG4 857-924): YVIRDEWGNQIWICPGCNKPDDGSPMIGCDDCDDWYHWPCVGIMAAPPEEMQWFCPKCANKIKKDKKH
Description: NMR titration line shape analysis (TITAN), wild-type Taf3-PHD. Type of assay: binding. On the procedure: The ^13C- and ^15N-labelled Taf3-PHD NMR samples were purified as described above, with minor differences. A single colony of freshly transformed BL21(DE3) E. coli was grown in a synthetic M9 minimal medium (6.0 g/l Na2HPO4·2H2O, 3.0 g/l KH2PO4, 0.5 g/l NaCl, 25 mg/l MgSO4, 290 μg/l CaCl2, 1 μg/l FeSO4·7H2O, 270 μg/l ZnCl2, and 5 mg/l thiamine) containing 2.0 g/l ^13C-glucose as the only carbon source and 0.5 g/l ^15NH4Cl as the sole nitrogen source. Protein expression, lysis, and loading to Glutathione Sepharose™ column were performed as described above. The GST-tag was removed through on-column thrombin digestion by loading excess thrombin (SERVA) in wash buffer followed by overnight digestion at 4°C. The cleaved PHD moiety with a […] N-terminal extension (Gly–Ser–His–Met–Ala–Met–Ala) remaining from the thrombin cleavage site was collected from the flow-through and further purified in a Mono Q™ 10/100 GL as before and subsequently loaded to a Superdex-75 HiLoad 16/600 gel filtration column in NMR buffer (20 mM KPi, pH 7.0, 150 mM KCl, 10 μM ZnCl2) (Supplementary Fig. S1).
All data were recorded at 298 K on a Bruker Avance III HD 900 MHz spectrometer equipped with a cryoprobe, unless noted otherwise. Sample for assignment verification contained 0.3 mM ^13C- and ^15N-labelled PHD finger of Taf3 (residues 857–924) in NMR buffer (20 mM KPi, pH 7.0, 150 mM KCl, 10 μM ZnCl2, 0.01% NaN3, 10% D2O) in a 5-mm NMR tube. Samples for peptide interaction studies contained 0.19 mM ^13C- and ^15N-labelled PHD in NMR buffer in 3-mm NMR tubes. Lyophilized peptides were dissolved in NMR buffer including 1 mM sodium 3-(trimethylsilyl)tetradeuteriopropanionate (TSP) into 20 mM stock solutions. Upon dilution to 1 mM, all peptide solutions were at pH 7.0 in NMR buffer. Peptide concentrations were determined by comparing the integral of the Thr methyl signal (from T3, T6, and T11, total nine protons) to that of TSP using a quantitative 1D experiment (recycle delay 60 s) recorded at a Bruker Avance III 600 MHz spectrometer. Saturated complexes with H3K4me1/H3K4me2/H3K4me3 peptides with and without H3Q5ser were made by adding peptide to a 0.7 mM final concentration (3.6 equiv.). […] Additional samples were prepared using 30%, 50%, 80%, and 160% equiv. of peptide. All spectra were recorded and processed using Bruker Topspin and analysed using NMR-FAM Sparky and Poky.
For the H3K4me2 complexes, the resonance of G879 was excluded due to overlap and that of K875 was included. Spectra were processed using NMRPipe using exponential line broadening of 10/15 Hz in the direct/indirect dimension of the free induction decay before Fourier transform. Data were fit against a 1:1 binding model that also optimizes the ligand concentration to compensate for concentration errors. Fitting assumed an HSQC experiment using 1.2 ms for the first zz-filter delays and an additional 0.6 ms evolution at the start and end of t1 that accommodated the echo/anti-echo gradient. The average koff value and standard error from a bootstrap analysis based on 100 replicas are reported. The 95% confidence limits were estimated using a grid search fixing koff allowing for an ∼3% increase in the final residuals as based on the F-statistic given the degrees of freedom. For each koff value, the KD for the H3K4me3 peptide was restrained to fall within 100 and 400 nM to enforce compatibility to previous reported affinity to avoid unrealistically high fitted KD values at higher koff values. Of note, the quality of the fit at the confidence limit edges is visibly worse than the best fit, particularly for the high koff side. For the H3K4me3Q5ser peptide, no restraint on KD was necessary. For the H3K4me2 peptides, the KD was restrained to 5 μM maximum. Without these upper bounds for KD, slightly wider confidence limits for koff are found.

Usually koff stands for the rate constant with which the complex falls apart.

As for `C[C@H](N)C(=O)N[C@@H](CCCNC(=N)N)C(=O)N[C@H](C(=O)N[C@@H](CCCC[N+](C)(C)C)C(=O)N[C@@H](CCC(=O)NCCc1c[nH]c2ccc(O)cc12)C(=O)N[C@H](C(=O)N[C@@H](C)C(=O)N[C@@H](CCCNC(=N)N)C(=O)N[C@@H](CCCCN)C(=O)N[C@@H](CO)C(=O)N[C@H](C(=O)NCC(N)=O)[C@@H](C)O)[C@@H](C)O)[C@@H](C)O` [H3K4me3Q5ser], the koff is 16.8 ± 0.5 s⁻¹ (pH 7) and 12 to 22 s⁻¹ (pH 7, read-out: koff 95% confidence limits).

As to `C[C@H](N)C(=O)N[C@@H](CCCNC(=N)N)C(=O)N[C@H](C(=O)N[C@@H](CCCC[N+](C)(C)C)C(=O)N[C@@H](CCC(N)=O)C(=O)N[C@H](C(=O)N[C@@H](C)C(=O)N[C@@H](CCCNC(=N)N)C(=O)N[C@@H](CCCCN)C(=O)N[C@@H](CO)C(=O)N[C@H](C(=O)NCC(N)=O)[C@@H](C)O)[C@@H](C)O)[C@@H](C)O` [H3K4me3], the koff runs as follows: (NMR line shape fit (TITAN), 298 K, 20 mM KPi, pH 7.0, 150 mM KCl, 1:1 model, average ± standard error from bootstrap, 100 replicas, read-out: koff) 48.8 ± 1 s⁻¹; (NMR line shape fit (TITAN), 298 K, pH 7.0, grid search, read-out: koff 95% confidence limits) 42 to 56 s⁻¹.
